Experimental data reported in patent US7875270B2, “Treatment solution and method for preventing posterior capsular opacification by selectively inducing detachment and/or death of lens epithelial cells” (Abbott Medical Optics Inc., priority 2002, dated 2011).

Tested on: human retinal-pigmented epithelial cells (RPECs)
Experiment: Confluent RPEC monolayers exposed to solutions; MTT cell viability
Format: cell-based
Settings: 28 μM, 112 μM and 224 μM bumetanide, ≦200 mM NaCl, 3 μl of 5N NaOH
Description: As described below, the confluent monolayers of LECs, CEDCs, and RPECs grown in 96-well flat-bottom plates are exposed to varying concentrations of NaCl (an osmolyte) solution. Two hundred μl of NaCl solution (prepared as described below) are added to each well at concentrations of 137 mM, 170 mM, 340 mM, 680 mM, 1360 mM and 2000 mM NaCl, respectively. The solutions have a pH of 8.0±0.4. The concentrations of NaCl correspond to final osmolarities of about 285 to 4000 mOsm/L, respectively.
The primary and first passages of human lens epithelial cells, human corneal endothelial cells, and human retinal-pigmented epithelial cells are cultured. The LECs, the CEDCs, and the RPECs are isolated from post-mortem eyes by using standard techniques of cell isolation and enzyme digestion. See Uebersax E D, Grindstaff R D and Defoe D M Exp Eye Res. 2000 March; 70(3): 381-90; Wagner L M, Saleh S M, Boyle D J, and Takemoto D J. Mol Vis. 2002 Mar. 14; 8: 59-66; Cammarata P R, Schafer G, Chen S W, Guo Z, and Reeves R E. Invest Ophthalmol Vis Sci. 2002 February; 43(2): 425-33; Rakic J M, Galand A, and Vrensen G F. Exp Eye Res. 2000 November; 71(5): 489-94. LECs and CEDCs are cultured in Eagle's minimum essential medium (MEM). RPECs are cultured in Ham's F10 medium, supplemented with 2 mM glutamine, 25 mmol/L Hepes, pH 7.4, 10 U/mL penicillin, and 10 μg/mL streptomycin and 15% heat-inactivated foetal cow serum (FCS). The primary cultured LECs, CEDCs, and RPECs are sub-cultured at 10^4 cells/wells in 96-well flat-bottom plates until they reached 90 to 100% confluence. These cells are grown to confluence in an incubator with a humidified atmosphere of 5% CO2 at 37° C. The cells are kept in a confluent state for overnight before assays.
After treatment, the treated cells are thoroughly washed, and cultured with fresh media for twelve hours before cell viability is assessed. The capability of these cells to survive at the indicated hypertonic stress levels is assessed by an MTT assay 12-24 hours post-exposure.
MTT assay is an assay to assess mitochondria function, performed as described by Mosmann (Mosmann, T. J Immunol Methods. 1983 Dec. 16; 65(1-2): 55-63. The tetrazolium salt 3-(4,5-dimethylthiazol-2-yl)-2,5-diphenyl tetrazolium bromide (MTT; supplied by Sigma Chemical Co.) is dissolved in Phosphate's Balanced Salt (PBS) Solutions at 5 mg/ml and sterilized by passage through a 0.22 μm Millipore filter. MTT stock solution is added to growth media at a ratio of 1 to 10. Cells are incubated with this growth media for three to four hours. In cells that are alive at the time of adding MTT, mitochondrial dehydrogenase cleaves the tetrazolium ring into a dark blue formazan reaction product, which builds up in the cell. MTT-reacted cultures are observed under brightfield microscopy without further processing. Cells in each well are scored as MTT-positive if they are completely filled with reaction product (in the case of unattached cells) or contain many formazan crystals emanating from multiple foci (in the case of attached or spread cells). MTT-reacted cultures are then lysised by dimethyl sulfoxide (DMSO) and read in a Microplate Reader to obtain a measure of cell viability.
Confluent monolayers of RPECs are prepared as described in Example 1. These cells are exposed for ten minutes to 200 μl/well of the solutions comprising increasing concentrations of NaCl (137 mM, 170 mM, 340 mM, 680 mM, 1360 mM and 2000 mM) at varying pH (8.4±0.5 and 10.6±0.5). The solutions of NaCl are prepared as described in Example 1. The pH of the solutions is adjusted with additions of 1 μl and 5 μl of 5N NaOH as described Example 3.
Confluent monolayers of LECs and RPECs are prepared as described in Example 1. […]
Confluent monolayers of LECs, CEDCs and RPECs are prepared as described in Example 1. […]
To assess whether there is any side effect of this treatment on other ocular cells, confluent monolayers of LECs, CEDCs and RPECs are prepared as described in Example 1. […]

Compound: CCCCNc1cc(C(=O)O)cc(S(N)(=O)=O)c1Oc1ccccc1 [bumetanide]
- RPECs killed or removed: less than 20%
